What was measured:
[1] = system: barley (Hordeum vulgare) leaves; test: Leaf penetration of 2,4-D, alone or in combination with modified oils; type: in vivo; details: percentage of 2,4-D penetrated into barley leaf
Protocol: (§1) Ten drops are applied to the adaxial surface of the first leaf. After 0, 4, 6, 24 or 72 hours, the product which has not penetrated is washed with 0.5 ml of acetone and the radioactivity measured by liquid scintillation. The radioactivity present in the treated leaf in the rest of the plant is determined in the carbon dioxide obtained after burning the tissue.
The penetration into barley (Hordeum vulgare) leaves, of 2,4-D or (2,4-dichlorophenoxy) acetic acid, which is a herbicide with a highly dissociated carboxylic acid function, alone or in combination with modified oils, was compared according to the procedure described in the preceding paragraph.

[2] = system: barley (Hordeum vulgare) leaves; test: Leaf penetration of carbon-14 labeled phenmedipham, alone or in combination with modified oils; type: in vivo; parameters: dose or concentration left out as unconfirmed; details: percentage of phenmedipham penetrated into barley leaf, 72 hours after application in acetone
Protocol: as §1

Structure (SMILES)	LEAF PENETRATION AT: 24 HOURS ([1]; 24 hours after application) [%]	LEAF PENETRATION AT: 72 HOURS ([1]; 72 hours after application) [%]	LEAF PENETRATION AT: 72 HOURS [2] [%]
O=C(O)COc1ccc(Cl)cc1Cl [2,4-D ALONE, (2,4-dichlorophenoxy) acetic acid]	10	15	–
COC(=O)Nc1cccc(OC(=O)Nc2cccc(C)c2)c1 [PH[…], 3-[(methoxycarbonyl)amino] phenyl (3-methylphenyl)-carbamate]	–	–	<10
